We go through 17 compounds from ChEMBL document CHEMBL1146351, “Synthesis and biological evaluation of thiazolidine-2-one 1,1-dioxide as inhibitors of Escherichia coli beta-ketoacyl-ACP-synthase III (FabH)” (Bioorg Med Chem Lett, 2007).

Each structure is given as a SMILES string. In brackets after ≈: the same amount, converted by molar mass. Activity calls are given as the source filed them. The rule behind the calls is not given here.

Assay [1] addresses T1, 3-oxoacyl-[acyl-carrier-protein] synthase 3 (Escherichia coli, UniProt C3TDZ2).
T1 sequence (C3TDZ2 whole entry): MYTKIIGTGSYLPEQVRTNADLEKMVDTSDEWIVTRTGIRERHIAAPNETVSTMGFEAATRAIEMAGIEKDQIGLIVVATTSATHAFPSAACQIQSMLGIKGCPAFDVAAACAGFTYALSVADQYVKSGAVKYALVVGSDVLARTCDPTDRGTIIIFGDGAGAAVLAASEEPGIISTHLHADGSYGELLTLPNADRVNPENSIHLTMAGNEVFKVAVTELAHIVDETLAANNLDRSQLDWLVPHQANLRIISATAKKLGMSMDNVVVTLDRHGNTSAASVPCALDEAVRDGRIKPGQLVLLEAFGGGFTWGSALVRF
Put plainly: Inhibition of Escherichia coli FabH.

The subject of the next assay is Plasmodium falciparum. Put plainly: Antimalarial activity against Plasmodium falciparum D6. In kind it is functional, organism-based.
Assay [2] has as its target T2, Beta-ketoacyl-ACP-synthase III (Plasmodium falciparum) (UniProt O77078).
T2 sequence (whole entry): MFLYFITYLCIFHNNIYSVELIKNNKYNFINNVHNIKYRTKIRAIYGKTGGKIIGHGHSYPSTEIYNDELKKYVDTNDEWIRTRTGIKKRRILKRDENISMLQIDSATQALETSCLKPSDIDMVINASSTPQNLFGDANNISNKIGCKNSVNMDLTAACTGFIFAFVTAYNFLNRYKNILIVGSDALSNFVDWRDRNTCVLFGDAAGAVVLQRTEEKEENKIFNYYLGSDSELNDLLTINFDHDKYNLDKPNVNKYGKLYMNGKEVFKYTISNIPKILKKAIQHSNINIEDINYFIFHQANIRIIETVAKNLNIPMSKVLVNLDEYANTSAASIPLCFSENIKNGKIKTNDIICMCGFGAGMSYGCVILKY
Briefly: Inhibition of Plasmodium falciparum D6 KASIII at 100 uM.

Assay [3] addresses T3, Mycobacterial beta-ketoacyl-[acyl-carrier-protein] synthase III (Mycobacterium tuberculosis) (UniProt P9WNG3).
T3 sequence (whole entry): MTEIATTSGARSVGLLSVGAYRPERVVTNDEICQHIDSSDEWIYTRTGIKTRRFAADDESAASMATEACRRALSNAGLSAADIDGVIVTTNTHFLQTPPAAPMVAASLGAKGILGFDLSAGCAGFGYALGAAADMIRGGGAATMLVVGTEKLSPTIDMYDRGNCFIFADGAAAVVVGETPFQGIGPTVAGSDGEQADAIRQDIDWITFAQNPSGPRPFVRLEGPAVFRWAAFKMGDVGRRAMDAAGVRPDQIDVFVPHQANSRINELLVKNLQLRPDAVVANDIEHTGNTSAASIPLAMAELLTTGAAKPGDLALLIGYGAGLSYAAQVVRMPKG
Put plainly: Inhibition of Mycobacterium tuberculosis FabH at 100 uM.

In assay [4] the test system is Escherichia coli. Briefly: Antibacterial activity against Escherichia coli expressing FabH. In kind it is functional.
Assay [5] has as its system Escherichia coli. Briefly: Antibacterial activity against Escherichia coli. In kind it is functional.

As to `S=C1SCCN1CCc1ccccc1`, the IC50 in assay [1] is greater than 100 µM; with Plasmodium falciparum, 55.5 µM. Further, the result in assay [2] and in assay [3] was inactive.

Turning to `S=C1SCCN1Cc1cccnc1`, the IC50 in assay [1] was greater than 100 µM; in the assay on Plasmodium falciparum, 73.4 µM. Moreover, the outcome in assay [2] and in assay [3] was inactive.

Turning to `CN1CCSC1=S`, the IC50 (in assay [1]; with Plasmodium falciparum) was greater than 100 µM each time. The result in assay [2] and in assay [3] was inactive.

In the case of `O=C1SCCN1Cc1cccnc1`, the values for the IC50 (in assay [1]; in the assay on Plasmodium falciparum) were 20.7 µM and 78.4 µM, respectively. Besides, the outcome in assay [2] and in assay [3] was inactive.

With `CCCN1CCS(=O)(=O)C1=O`, the IC50 (in assay [1]; with Plasmodium falciparum) was greater than 100 µM throughout. The result in assay [2] and in assay [3] was inactive.

`O=C1N(Cc2ccc(Oc3ccc(C4CCCC4)cc3)cc2)CCS1(=O)=O`: the IC50 in assay [1] is 2.4 µM; in the assay on Plasmodium falciparum, 10.8 µM. In addition, the outcome in assay [2] and in assay [3] was inactive.

For `O=C1N(Cc2ccccc2)CCS1(=O)=O`, the MIC in the assay with Escherichia coli [4] and in the assay on Escherichia coli [5] was 6.6 µg/mL (≈ 29.3 µM) each time. For the same compound, the results for the IC50 (in assay [1]; with Plasmodium falciparum) were 1.1 µM and 67.6 µM, respectively. The outcome in assay [2] and in assay [3] was inactive.

With `O=C1N(CCc2ccccc2)CCS1(=O)=O`, the values for the IC50 (in assay [1]; in the assay on Plasmodium falciparum) were 1.9 µM and 21.6 µM, respectively. Also, the minimal inhibitory concentration (MIC) against Escherichia coli [5] was 16.5 µg/mL (≈ 69 µM). The outcome in assay [2] and in assay [3] was inactive.

Turning to `CCCN1CCSC1=S`, the IC50 (in assay [1]; with Plasmodium falciparum) was greater than 100 µM in each case. Further, the outcome in assay [2] and in assay [3] was inactive.

Take `O=C1SCCN1Cc1ccc(Oc2ccc(C3CCCC3)cc2)cc1`: the IC50 in assay [1] stood at 14.4 µM; in the assay with Plasmodium falciparum, 11.1 µM. For the same compound, the outcome in assay [2] and in assay [3] was inactive.

For the compound `O=C1SCCN1Cc1ccccc1`, the figures for the IC50 (in assay [1]; in the assay with Plasmodium falciparum) were 13.7 µM and 90.9 µM, respectively. Besides, the outcome in assay [2] and in assay [3] was inactive.

Turning to `CN1CCS(=O)(=O)C1=O`, the IC50 (in assay [1]; with Plasmodium falciparum) was greater than 100 µM in each case. The outcome in assay [2] and in assay [3] was inactive.

As to `S=C1SCCN1Cc1ccc(Oc2ccccc2)cc1`, the IC50 in assay [1] was greater than 100 µM; in the assay with Plasmodium falciparum it was 55.6 µM. Further, the result in assay [2] and in assay [3] was inactive.

As to `O=C1SCCN1Cc1ccc(Oc2ccccc2)cc1`, the IC50 in assay [1] came out at 10.9 µM; with Plasmodium falciparum, 67.1 µM. Further, the result in assay [2] and in assay [3] was inactive.

As to `S=C1SCCN1Cc1ccc(Oc2ccc(C3CCCC3)cc2)cc1`, the concentration for half-maximal inhibition (IC50) is 17.7 µM in assay [1] and 5.3 µM in the assay with Plasmodium falciparum. For the same compound, the outcome in assay [2] and in assay [3] was inactive.

For `S=C1SCCN1Cc1ccccc1`, the IC50 was greater than 100 µM in assay [1] and 61.6 µM in the assay with Plasmodium falciparum. Also, the result in assay [2] and in assay [3] was inactive.

As for `O=C1N(Cc2ccc(Oc3ccccc3)cc2)CCS1(=O)=O`, the IC50 in assay [1] was 0.9 µM; with Plasmodium falciparum it was 49.4 µM. The result in assay [2] and in assay [3] was inactive.

The IC50 is the concentration that inhibits the measured activity by half. A lower IC50 goes with greater potency. For orientation: MIC means the least concentration at which growth counts as inhibited.
